Each structure is given as a SMILES string.

The data set can be described thus: method code SF-AS, from DOI: 10.1002/ps.2780410210.
The term logP denotes a log measure of how a compound divides between an organic and an aqueous phase. Lower therefore signals lower lipophilicity. Regarding `CC(C)(C)N(NC(=O)c1ccccc1)C(=O)c1c(F)cccc1Cl`, the logP is 2.34.
`CC(C)(C)N(NC(=O)c1ccccc1)C(=O)c1cccc(C(F)(F)F)c1` yielded a logP of 3.61.
Turning to `CC(C)(C)N(NC(=O)c1ccccc1)C(=O)c1cccc(Cl)c1`, the logP was 3.28.
In turn, `COc1cccc(C(=O)N(NC(=O)c2ccccc2)C(C)(C)C)c1` came in with a log partition coefficient (logP) of 2.56.
To `CC(C)(C)N(NC(=O)c1ccccc1)C(=O)c1c(F)c(F)c(F)c(F)c1F` belongs 3.25; to `CC(C)(C)N(NC(=O)c1ccccc1)C(=O)c1ccc([N+](=O)[O-])cc1`, 2.63; to `Cc1cccc(C(=O)N(NC(=O)c2ccccc2)C(C)(C)C)c1C`, 3.1.
The value for `CC(C)(C)N(NC(=O)c1ccccc1)C(=O)c1ccc(Br)cc1` was 3.66; that for `CC(C)(C)N(NC(=O)c1ccccc1)C(=O)c1cc(F)c(F)c(F)c1F` was 3.44.
The compound `Cc1cc(C)cc(C(=O)N(NC(=O)c2ccccc2)C(C)(C)C)c1` gave a logP of 3.39.
`CC(C)(C)N(NC(=O)c1ccccc1)C(=O)c1ccccc1C(F)(F)F` displayed a logP of 2.85.
On to `Cc1ccc(C(=O)N(NC(=O)c2ccccc2)C(C)(C)C)cc1`, for which the logP is 2.99.
To `CC(C)(C)N(NC(=O)c1ccccc1)C(=O)c1ccc(C#N)cc1` belongs 2.5.
Compound `Cc1c(Cl)cccc1C(=O)N(NC(=O)c1ccccc1)C(C)(C)C` registered a logP of 3.57.
The value for `CC(C)(C)N(NC(=O)c1ccccc1)C(=O)c1cccc(Br)c1` was 3.49.
To `CC(C)(C)N(NC(=O)c1ccccc1)C(=O)c1c(F)cccc1F` belongs 2.16; to `CC(C)(C)N(NC(=O)c1ccccc1)C(=O)c1ccc(C(F)(F)F)cc1`, 3.77.
To `CC(C)(C)N(NC(=O)c1ccccc1)C(=O)c1ccccc1I` belongs 2.83.
As for `CC(C)(C)N(NC(=O)c1ccccc1)C(=O)c1cccc(C#N)c1`, the logP was determined as 2.34.
The value for `CC(C)(C)N(NC(=O)c1ccccc1)C(=O)c1ccc(F)cc1` was 2.85; that for `COc1ccc(C(=O)N(NC(=O)c2ccccc2)C(C)(C)C)cc1OC` was 2.09.
Turning to `Cc1ccc(C(=O)N(NC(=O)c2ccccc2)C(C)(C)C)cc1C`, the logP was determined as 3.34.
In turn, `CC(C)(C)N(NC(=O)c1ccccc1)C(=O)c1c(Cl)cccc1Cl` came in with a lipophilicity (logP) of 2.56.
Compound `CCc1ccccc1C(=O)N(NC(=O)c1ccccc1)C(C)(C)C` had a logP of 2.96.
The compound `CC(C)(C)N(NC(=O)c1ccccc1)C(=O)c1cccc(I)c1` gave a logP of 3.72.
The compound `CC(C)(C)N(NC(=O)c1ccccc1)C(=O)c1ccc(Cl)cc1Cl` showed a logP of 3.55.
The value for `CC(C)(C)N(NC(=O)c1ccccc1)C(=O)c1cc(Cl)ccc1Cl` was 3.36.
Turning to `CC(C)(C)N(NC(=O)c1ccccc1)C(=O)c1ccccc1`, the logP worked out at 2.45.
In the case of `Cc1ccc(C)c(C(=O)N(NC(=O)c2ccccc2)C(C)(C)C)c1`, the logP was 3.25.
The value for `Cc1ccc(C(=O)N(NC(=O)c2ccccc2)C(C)(C)C)c(C)c1` was 3.18; that for `Cc1cccc(C(=O)N(NC(=O)c2ccccc2)C(C)(C)C)c1` was 2.79.
Consider `CC(C)(C)N(NC(=O)c1ccccc1)C(=O)c1ccccc1F`, for which the logP was 2.38.
`Cc1ccccc1C(=O)N(NC(=O)c1ccccc1)C(C)(C)C` came in with a logP of 2.75.
To `CSc1ccccc1C(=O)N(NC(=O)c1ccccc1)C(C)(C)C` belongs 2.6.
The value for `CC(C)(C)N(NC(=O)c1ccccc1)C(=O)c1ccccc1[N+](=O)[O-]` was 2.27; that for `CC(C)(C)N(NC(=O)c1ccccc1)C(=O)c1cccc([N+](=O)[O-])c1` was 2.73; that for `CC(C)(C)N(NC(=O)c1ccccc1)C(=O)c1ccccc1Br` was 2.69.
The value for `COc1ccc(C(=O)N(NC(=O)c2ccccc2)C(C)(C)C)cc1` was 2.56; that for `CC(C)(C)N(NC(=O)c1ccccc1)C(=O)c1ccc(I)cc1` was 3.78; that for `CC(C)(C)N(NC(=O)c1ccccc1)C(=O)c1ccc(Cl)cc1` was 3.42.
Regarding `CC(C)(C)N(NC(=O)c1ccccc1)C(=O)c1cccc(F)c1`, the logP came to 2.78.
Compound `COc1ccccc1C(=O)N(NC(=O)c1ccccc1)C(C)(C)C` had a logP of 2.04.
With `CC(C)(C)N(NC(=O)c1ccccc1)C(=O)c1cccc(Cl)c1Cl`, the lipophilicity (logP) stood at 3.41.
Regarding `CC(C)(C)N(NC(=O)c1ccccc1)C(=O)c1ccc(Cl)c(Cl)c1`, the logP stood at 4.25.

These data come from the SangsterLogP compilation.
